Laboratory results from publication PMC5584945, “Evaluation of robenidine analog NCL195 as a novel broad-spectrum antibacterial agent” (PLoS ONE, 2017).
In brackets after ≈: the same amount, converted by molar mass. Like-named read-outs stand apart in the source and are kept apart here.

How the values were obtained:
S. aureus = experiment: MIC, broth micro-dilution (CLSI); assay type: cell-based, Staphylococcus aureus; conditions: Staphylococcus aureus; for MIC: read-out: MIC
[1] = test system: vancomycin-resistant enterococci (VRE); experiment: MIC, broth micro-dilution (CLSI); assay type: cell-based, enterococci (porcine isolates); conditions: for MIC90 / MIC50 / MIC: Enterococcus, VRE
S. aureus Xen29 = experiment: Time-dependent killing assay; assay type: cell-based, Staphylococcus aureus; conditions: for Time to clear all Xen29: 4× MIC
Experimental: Time kill assays were performed (in duplicate) essentially as described previously with slight modifications. Briefly, a few colonies of luminescent S. pneumoniae strain D39LUX or luminescent S. aureus ATCC 12600 (Xen29) from an overnight HBA were emulsified in normal saline and adjusted to A600 nm = 0.10 (equivalent to approx. 5 × 10^7 c.f.u. per ml) and the bacterial suspension further diluted 1:20 in saline. […] The compounds were serially diluted in 100% DMSO at 100× the final desired concentration and 100 μl of appropriate concentrations added to each 10 ml preparation. Duplicate cultures were incubated at 37°C (+ 5% CO2 for S. pneumoniae D39), with samples withdrawn at 0, 0.5, 1, 2, 4, 6, 8 and 24 h, serially diluted 10-fold and plated on HBA overnight at 37°C (+ 5% CO2 for S. pneumoniae D39) for bacterial enumeration.

[2] = ATCC 29213 / MSSA, ATCC29213 MSSA (ST5), absence of FBS
[3] = IRISH 1 – HA-EMRSA (ST8), absence of FBS
[4] = IRISH 2 – HA-EMRSA (ST8), absence of FBS
[5] = MRSA / USA300, USA 300 - MRSA (ST8), absence of FBS
[6] = MRSA, AUS2-MRSA (ST239), absence of FBS
[7] = MRSA, AUS3-MRSA (ST239), absence of FBS
[8] = MRSA, BENGAL BAY PVL+ – CA-MRSA (ST772), absence of FBS
[9] = MRSA, Classic–HA-MRSA (ST250), absence of FBS
[10] = MRSA, NY JAPAN – HA MRSA (ST5), absence of FBS
[11] = MRSA, QLD PVL+ –CA-MRSA (ST93), absence of FBS
[12] = MRSA, ST398–CA-MRSA-V (ST398), absence of FBS
[13] = MRSA, WSPP – PVL neg CA MRSA (ST30), absence of FBS
[14] = S2 Table isolates, absence of FBS
[15] = TAIWAN PVL+ – CA-cMRSA (ST59), absence of FBS
[16] = UK 15 PVL+ – HA-EMRSA (ST22), absence of FBS
[17] = UK 15 – HA-EMRSA (ST22), absence of FBS
[18] = UK 16 – HA- EMRSA (ST36), absence of FBS
[19] = UK 17 – HA-EMRSA (ST247), absence of FBS
[20] = S3 Table isolates, absence of FBS

## CC1(C)S[C@@H]2[C@H](NC(=O)[C@H](N)c3ccccc3)C(=O)N2[C@H]1C(=O)O [Ampicillin]
S. aureus; 23 isolates
  MIC90: > 16 µg/mL
S. aureus; [2]
  MIC: 2 µg/mL (≈ 5.72 µM)
S. aureus; [3]
  MIC: > 16 µg/mL
S. aureus; [4]
  MIC: > 16 µg/mL
S. aureus; [5]
  MIC: > 16 µg/mL
S. aureus; [6]
  MIC: > 16 µg/mL
S. aureus; [7]
  MIC: > 16 µg/mL
S. aureus; [8]
  MIC: 8 µg/mL (≈ 22.9 µM)
S. aureus; [9]
  MIC: > 16 µg/mL
S. aureus; [10]
  MIC: > 16 µg/mL
S. aureus; [11]
  MIC: > 16 µg/mL
S. aureus; [12]
  MIC: > 16 µg/mL
S. aureus; [13]
  MIC: > 16 µg/mL
S. aureus; [14]
  MIC50: > 16 µg/mL
  MIC90: > 16 µg/mL
S. aureus; [15]
  MIC: 8 µg/mL (≈ 22.9 µM)
S. aureus; [16]
  MIC: 16 µg/mL (≈ 45.8 µM)
S. aureus; [17]
  MIC: > 16 µg/mL
S. aureus; [18]
  MIC: > 16 µg/mL
S. aureus; [19]
  MIC: > 16 µg/mL
[1]; 20 isolates
  MIC90: 2 µg/mL (≈ 5.72 µM)
[1]; [20]
  MIC50: 1 µg/mL (≈ 2.86 µM)
  MIC90: 2 µg/mL (≈ 5.72 µM)
  MIC range: 0.25 to 2 µg/mL
[1]; VRE 1 (49 FR), absence of FBS
  MIC: 2 µg/mL (≈ 5.72 µM)
[1]; VRE 2 (53 FR), absence of FBS
  MIC: 1 µg/mL (≈ 2.86 µM)
[1]; VRE 3 (55 FR), absence of FBS
  MIC: 1 µg/mL (≈ 2.86 µM)
[1]; VRE 4 (57 FR), absence of FBS
  MIC: 1 µg/mL (≈ 2.86 µM)
[1]; VRE5 (58 FR), absence of FBS
  MIC: 1 µg/mL (≈ 2.86 µM)
[1]; VRE 6 (59 FR), absence of FBS
  MIC: 2 µg/mL (≈ 5.72 µM)
[1]; VRE 7 (270 G), absence of FBS
  MIC: 0.25 µg/mL (≈ 0.715 µM)
[1]; VRE 8 (277 G), absence of FBS
  MIC: 2 µg/mL (≈ 5.72 µM)
[1]; VRE 9 (61 FR), absence of FBS
  MIC: 1 µg/mL (≈ 2.86 µM)
[1]; VRE 10 (62 FR), absence of FBS
  MIC: 2 µg/mL (≈ 5.72 µM)
[1]; VRE 11 (284 G), absence of FBS
  MIC: 2 µg/mL (≈ 5.72 µM)
[1]; VRE 12 (290 G), absence of FBS
  MIC: 1 µg/mL (≈ 2.86 µM)
[1]; VRE 13 (251 G), absence of FBS
  MIC: 1 µg/mL (≈ 2.86 µM)
[1]; VRE 14 (252 G), absence of FBS
  MIC: 0.5 µg/mL (≈ 1.43 µM)
[1]; VRE 15 (63 FR), absence of FBS
  MIC: 1 µg/mL (≈ 2.86 µM)
[1]; VRE 16 (60 FR), absence of FBS
  MIC: 1 µg/mL (≈ 2.86 µM)
[1]; VRE 17 (45 FR), absence of FBS
  MIC: 2 µg/mL (≈ 5.72 µM)
[1]; VRE 18 (69 W), absence of FBS
  MIC: 1 µg/mL (≈ 2.86 µM)
[1]; VRE 19 (70 W), absence of FBS
  MIC: 1 µg/mL (≈ 2.86 µM)
[1]; VRE 20 (78 W), absence of FBS
  MIC: 1 µg/mL (≈ 2.86 µM)
S. aureus Xen29
  Time to clear all Xen29: 6 h
S. aureus Xen29; at the concentrations tested (2× and 4× MIC)
  Regrowth after 24 h: some S. aureus regrowth was observed

## CCCCCCCCCC(=O)N[C@@H](Cc1c[nH]c2ccccc12)C(=O)N[C@H](CC(N)=O)C(=O)N[C@@H](CC(=O)O)C(=O)N[C@@H]1C(=O)NCC(=O)N[C@@H](CCCN)C(=O)N[C@@H](CC(=O)O)C(=O)N[C@H](C)C(=O)N[C@@H](CC(=O)O)C(=O)NCC(=O)N[C@H](CO)C(=O)N[C@@H]([C@H](C)CC(=O)O)C(=O)N[C@@H](CC(=O)c2ccccc2N)C(=O)O[C@@H]1C [Daptomycin, daptomycin]
S. aureus; 23 isolates
  MIC90: 0.5 µg/mL (≈ 0.309 µM)
S. aureus; ATCC 12600 / MSSA, ATCC12600 [Xen29] (MSSA), 10% FBS
  MIC: 0.5 µg/mL (≈ 0.309 µM)
S. aureus; ATCC 12600 / MSSA, ATCC12600 [Xen29] (MSSA), absence of FBS
  MIC: 0.5 µg/mL (≈ 0.309 µM)
S. aureus; [2]
  MIC: 0.5 µg/mL (≈ 0.309 µM)
S. aureus; ATCC 49775 / MSSA, ATCC 49775 (MSSA), absence of FBS
  MIC: 0.5 µg/mL (≈ 0.309 µM)
S. aureus; [3]
  MIC: 0.5 µg/mL (≈ 0.309 µM)
S. aureus; [4]
  MIC: 0.5 µg/mL (≈ 0.309 µM)
S. aureus; [5]
  MIC: 0.5 µg/mL (≈ 0.309 µM)
S. aureus; [6]
  MIC: 1 µg/mL (≈ 0.617 µM)
S. aureus; [7]
  MIC: 0.5 µg/mL (≈ 0.309 µM)
S. aureus; [8]
  MIC: 0.5 µg/mL (≈ 0.309 µM)
S. aureus; [9]
  MIC: 0.5 µg/mL (≈ 0.309 µM)
S. aureus; [10]
  MIC: 0.5 µg/mL (≈ 0.309 µM)
S. aureus; [11]
  MIC: 0.25 µg/mL (≈ 0.154 µM)
S. aureus; [12]
  MIC: 0.5 µg/mL (≈ 0.309 µM)
S. aureus; [13]
  MIC: 0.5 µg/mL (≈ 0.309 µM)
S. aureus; [14]
  MIC50: 0.5 µg/mL (≈ 0.309 µM)
  MIC90: 0.5 µg/mL (≈ 0.309 µM)
S. aureus; [15]
  MIC: 0.5 µg/mL (≈ 0.309 µM)
S. aureus; [16]
  MIC: 0.5 µg/mL (≈ 0.309 µM)
S. aureus; [17]
  MIC: 0.5 µg/mL (≈ 0.309 µM)
S. aureus; [18]
  MIC: 0.5 µg/mL (≈ 0.309 µM)
S. aureus; [19]
  MIC: 0.5 µg/mL (≈ 0.309 µM)
[1]; 20 isolates
  MIC90: 2 µg/mL (≈ 1.23 µM)
[1]; [20]
  MIC50: 1 µg/mL (≈ 0.617 µM)
  MIC90: 2 µg/mL (≈ 1.23 µM)
  MIC range: 0.5 to 2 µg/mL
[1]; VRE 1 (49 FR), absence of FBS
  MIC: 1 µg/mL (≈ 0.617 µM)
[1]; VRE 2 (53 FR), absence of FBS
  MIC: 2 µg/mL (≈ 1.23 µM)
[1]; VRE 3 (55 FR), absence of FBS
  MIC: 2 µg/mL (≈ 1.23 µM)
[1]; VRE 4 (57 FR), absence of FBS
  MIC: 2 µg/mL (≈ 1.23 µM)
[1]; VRE5 (58 FR), absence of FBS
  MIC: 2 µg/mL (≈ 1.23 µM)
[1]; VRE 6 (59 FR), absence of FBS
  MIC: 2 µg/mL (≈ 1.23 µM)
[1]; VRE 7 (270 G), absence of FBS
  MIC: 1 µg/mL (≈ 0.617 µM)
[1]; VRE 8 (277 G), absence of FBS
  MIC: 0.5 µg/mL (≈ 0.309 µM)
[1]; VRE 9 (61 FR), absence of FBS
  MIC: 1 µg/mL (≈ 0.617 µM)
[1]; VRE 10 (62 FR), absence of FBS
  MIC: 2 µg/mL (≈ 1.23 µM)
[1]; VRE 11 (284 G), absence of FBS
  MIC: 0.5 µg/mL (≈ 0.309 µM)
[1]; VRE 12 (290 G), absence of FBS
  MIC: 1 µg/mL (≈ 0.617 µM)
[1]; VRE 13 (251 G), absence of FBS
  MIC: 0.5 µg/mL (≈ 0.309 µM)
[1]; VRE 14 (252 G), absence of FBS
  MIC: 1 µg/mL (≈ 0.617 µM)
[1]; VRE 15 (63 FR), absence of FBS
  MIC: 1 µg/mL (≈ 0.617 µM)
[1]; VRE 16 (60 FR), absence of FBS
  MIC: 2 µg/mL (≈ 1.23 µM)
[1]; VRE 17 (45 FR), absence of FBS
  MIC: 2 µg/mL (≈ 1.23 µM)
[1]; VRE 18 (69 W), absence of FBS
  MIC: 1 µg/mL (≈ 0.617 µM)
[1]; VRE 19 (70 W), absence of FBS
  MIC: 0.5 µg/mL (≈ 0.309 µM)
[1]; VRE 20 (78 W), absence of FBS
  MIC: 2 µg/mL (≈ 1.23 µM)
S. aureus Xen29
  Time to clear all Xen29: 1 h
